We go through 18 compounds from the supplement of paper PMC5412046.

SMILES strings stand for the structures. Structures can show the parent of a compound that is named as a salt.

The test system of assay [1] is SB.msgc-1. Kind of assay: area under the dose-response curve of % viability (trapezoidal, 11 doses) (% viability x log10 concentration); higher = less cytotoxic. The following applies: SB.msgc-1 (sporadic gastric cancer). An outline of the steps:
(§1)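 Using a pintool, 23 nL of compound in DMSO was transferred at 11 threefold-diluted concentrations onto patient-derived gastric cancer cells, hereditary or sporadic, plated at 500 cells in 5 μL medium per 1536 well. CellTiter-Glo luminescence was read after 48 h. Each value is viability normalised to DMSO, either at the highest concentration or as trapezoidal area under the curve.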

Assay [2] concerns SB.mhdgc-1. The assay is described as above. As to conditions: SB.mhdgc-1 (hereditary c.1380delA CDH1 gastric cancer). In short, it runs like this: as §1
For assay [3], the system named is SB.msgc-1. Kind of assay: viability at highest tested concentration (MAXR) relative to DMSO; higher = less cytotoxic. The following applies: SB.msgc-1 (sporadic gastric cancer). An outline of the steps:
as §1

Assay [4] relates to SB.mhdgc-1. The description is as above. The following applies: SB.mhdgc-1 (hereditary c.1380delA CDH1 gastric cancer). An outline of the steps:
as §1

As a reminder, the viability is a read-out of living cells in per cent, often relative to untreated cells. Turning to `CCCCCCOC(=O)/N=C(/N)c1ccc(NCc2nc3cc(C(=O)N(CCC(=O)OCC)c4ccccn4)ccc3n2C)cc1` [BIBR 1048] (top concentration 46.0829 µM), the “area under the dose-response curve” value in assay [1] is 500; in assay [2] it was 459. Moreover, the viability amounted to 35.7% in assay [3] and 37.6% in assay [4].
Taken in the same sequence, the figures for `CC/1=C(\O)C(=O)\C=C2/C1=C/C=C3\[C@@]2(C)CC[C@@]4(C)[C@@H]5C[C@@](C)(CC[C@]5(C)CC[C@]34C)C(O)=O` [Tripterin] (top concentration 46.0829 µM) were 353, 448, 2.44% and 5.12%.
The like results for `Oc1ccc([C@@H]2Oc3ccc(O)cc3[C@@H]3CCC[C@@H]32)cc1` [Erteberel] (top concentration 46.0829 µM) were, in that order, 278, 492, 12.8% and 16.6%.
Taken in the same sequence, the figures for `C1CN\2C[C@@H](\N=C2S1)C3=CC=CC=C3` [L-tetramisol] (top concentration 46.0829 µM) were 442, 564, 91.3% and 130%.
With `CC(C(=O)O)c1ccc2c(c1)CC(=O)c1ccccc1S2` (configuration not stated) [Zaltoprofen] (top concentration 46.0829 µM), the “area under the dose-response curve” value in assay [1] is 431; in assay [2], 452. Besides, the viability in assay [3] was determined as 49.6%; in assay [4], 31.5%.
For the compound `CCOC(=O)C(C)(C)Oc1ccc(Cl)cc1` [Clofibrate] (top concentration 46.0829 µM), the “area under the dose-response curve” value is 515 in assay [1] and 543 in assay [2]. Also, the viability in assay [3] is 94.5%; in assay [4], 73.8%.
Taken in the same sequence, the figures for `CC(C)(O)Cn1c(NC(=O)c2ccc(-c3cn[nH]c3)s2)nc2cc(CN3CCOCC3)ccc21` (top concentration 46.0829 µM) were 455, 366, 23.5% and 7.07%.
As to `CC(=O)C\1=C(/C)C2=CN=C(NC3=CC=C(C=N3)N4CCNCC4)N=C2N(C5CCCC5)C1=O` (top concentration 46.0829 µM), the entries for the “area under the dose-response curve” value in assay [1] and in assay [2] were 493 and 497, respectively. Moreover, the viability in assay [3] amounted to 14.7%; in assay [4] it was 0.926%.
The like results for `NC\1=N\C(=O)N(\C=C1)[C@@H]2O[C@H](CO)[C@@H](O)[C@H]2O` [Cytidine] (top concentration 46.0829 µM) were, in that order, 567, 499, 124% and 109%.
Regarding `CNC[C@H](O)c1cccc(O)c1` [Phenylephrine hydrochloride] (top concentration 46.0829 µM), the “area under the dose-response curve” value in assay [1] is 541; in assay [2], 506. For the same compound, the viability was found to be 122% in assay [3] and 99.2% in assay [4].
On to `CNC(=O)c1nn(C)c2c1C(C)(C)Cc1cnc(Nc3ccc(N4CCN(C)CC4)cc3)nc1-2` [Milciclib] (top concentration 46.0829 µM), for which the “area under the dose-response curve” value came out at 445 in assay [1] and 454 in assay [2]. For the same compound, the values for the viability in assay [3] and in assay [4] were 59.5% and 61.8%, respectively.
The like results for `CNc1nc(-c2ccc3c(N)n[nH]c3c2)cc(N2C[C@@H](C(=O)NC3CCCCC3)CC[C@H]2C)n1` (top concentration 46.0829 µM) were, in that order, 423, 376, 14.5% and 8.83%.
The like results for `COc1ccc([C@@H]2CNC(=O)C2)cc1OC1CCCC1` [S-(+)-Rolipram] (top concentration 46.0829 µM) were, in that order, 437, 508, 5.46% and 44.8%.
Taken in the same sequence, the figures for `CCC(C)(C)c1ccc(CC(C)CN2C[C@@H](C)O[C@@H](C)C2)cc1` (some centres not stated) [Amorolfine hydrochloride] (top concentration 46.0829 µM) were 467, 378, 71.4% and 24.3%.
As to `C=CC[N+]1([C@H]2C[C@H]3[C@@H]4CC[C@H]5C[C@H](O)[C@@H](N6CCOCC6)C[C@]5(C)[C@H]4CC[C@]3(C)[C@H]2OC(C)=O)CCCC1` [Rocuronium bromide] (top concentration 46.0829 µM), the “area under the dose-response curve” value was determined as 594 in assay [1] and 578 in assay [2]. The viability in assay [3] stood at 76.2%; in assay [4] it was 109%.
Taken in the same sequence, the figures for `CC(=O)OCC(CCn1cnc2cnc(N)nc21)COC(C)=O` [Famciclovir] (top concentration 46.0829 µM) were 553, 546, 111% and 121%.
The like results for `Oc1cc(O)cc(/C=C/c2ccc(O)c(O)c2)c1` [Piceatannol] (top concentration 46.0829 µM) were, in that order, 494, 545, 72.8% and 77.9%.
As to `COc1ccc2[nH]c([S+]([O-])Cc3ncc(C)c(OC)c3C)nc2c1` (configuration not stated) [Omeprazole] (top concentration 46.0829 µM), the “area under the dose-response curve” value stood at 283 in assay [1] and 437 in assay [2]. In addition, the viability in assay [3] worked out at 33.7%; in assay [4] it was 20%.
